From patent US20160039936A1, “FIBROBLAST GROWTH FACTOR RECEPTOR INHIBITION FOR THE TREATMENT OF DISEASE” (UNIVERSITY OF MIAMI, priority 2011, published 2016)

Assays:
[1] = test system: isolated NRVM; assay: Cross-sectional area (hypertrophy) of isolated NRVM with receptor antagonists (Example 4); assay type: cell-based, rat; settings: NRVM 48 h, PD173074 10 nM, AZD4547 5 nM, anti-FGFR4 10 μg/ml
Procedure: NRVM were isolated using a standard isolation system (Worthington Biochemical Corporation) (Faul et al., 2011). Hearts from 1-2 day old Sprague Dawley rats were harvested, minced in calcium-and magnesium-free Hank's Balanced Salt Solution (HBSS), and the tissue digested with 50 μg/ml trypsin at 4° C. for 20-24 hours. Soybean trypsin inhibitor in HBSS was added, and the tissue was further digested with collagenase (in Leibovitz L-15 medium) under slow rotation (15 rpm) at 37° C. for 45 minutes. Cells were released by triturating the suspension 20 times with a standard 10 ml plastic serological pipette and filtering it twice through a cell strainer (70 μm, BD Falcon). Cells were incubated at room temperature for 20 minutes and spun at 100 g for 5 minutes. The cell pellet was resuspended in plating medium [Dulbecco's Modified Eagle Medium (DMEM; Cellgro) with 17% Media 199 (Invitrogen), 15% fetal bovine serum (FBS; Invitrogen) and 1% penicillin/streptomycin solution (P/S; Invitrogen)]. Cells were counted using a hemocytometer.
Cells were plated on glass and plastic surfaces, which were coated with laminin (Invitrogen; 10 μg/ml in PBS) at room temperature for 1 hour prior to plating. For immunofluorescence analysis, 3×10^5 cells were seeded per well on glass coverslips in 24-well plates. For Western blot or qPCR analyses of total extracts, 1×10^6 cells were seeded per well in 6-well plates, and for immunoprecipitation assays, 5×10^6 cells were seeded in 10 cm-culture dishes. Cells were left undisturbed in plating medium at 37° C. for 72 hours and then cultured in maintenance medium (DMEM with 20% Media 199, 1% insulin-transferrin-sodium selenite solution [ITS; Sigma-Aldrich] and 1% P/S) in the presence of 100 μM 5-bromo-2′-deoxyuridine (BrdU; Sigam-Aldrich). After 4 days, isolated cardiac myocytes were cultured in BrdU-containing maintenance medium in the presence of recombinant murine FGF23 or FGF2 (both at 25 ng/ml) for different time points.
Cultured cells were fixed in 2% PFA (in 5 mg/ml sucrose) for 5 minutes and permeabilized in 1% Triton X-100 (in PBS) for 10 minutes. We analyzed hypertrophic growth of isolated NRVM and NMVM on laminin-coated glass coverslips after 48 hours of treatment with growth factors. For FGFR4 expression and localization analyses, untreated NMVM from wild-type and FGFR4^−/− mice were immunolabeled. The mouse monoclonal antibody against sarcomeric α-actinin (EA-53; Sigma-Aldrich) was used at 1:1,000, and rabbit polyclonal anti-FGFR4 (C-16; Santa Cruz) at 1:50. Cy3-conjugated goat-anti mouse and Alexa488-conjugated goat-anti rabbit (Jackson Immuno Research) were used as secondary antibodies at 1:300. To visualize nuclei, fixed cells were incubated with 4′,6-diamidino-2-phenylindole (DAPI; 400 ng/ml in PBS) for 10 minutes. Immunofluorescence images were taken on a Leica TCS-SP5 confocal microscope with a 63× oil objective.
Myocyte cross-sectional area was measured based on α-actinin-positive staining using Leica AF6000 fluorescence software. To assess the signaling pathways involved in FGF23- and FGF2-mediated hypertrophy, we analyzed the morphometry of plated cells that were pre-treated with specific inhibitors for 60 minutes prior to the addition of the FGFs at 25 ng/ml (NRVMs) or at 100 ng/ml (NMVMs). The following inhibitors and concentrations were used: pan-FGFR, PD173074 (Sigma-Aldrich) at 10 nM; FGFR1-3, AZD4547 (ChemieTek) at 5 nM; and FGFR4 blocking antibody (human monoclonal, U3-11; U3Pharma) at 10 μg/ml.

[2] = test system: FGFR; settings: Hagel M et al 2015; cited from earlier work

Compound | FGF2-induced hypertrophy (cross-sectional area) with receptor antagonist ([1]; FGF2 25 ng/ml) | FGF23-induced hypertrophy (cross-sectional area) with receptor antagonist ([1]; FGF23 25 ng/ml) | FGFR4 inhibition [2]
AZD4547 | prevented | but not FGF23-induced hypertrophy | –
C=CC(=O)Nc1cccc(C)c1Nc1ncc2cc(-c3c(Cl)c(OC)cc(OC)c3Cl)ccc2n1 [BLU9931] | – | – | very potent and selective
